In ChEMBL document CHEMBL1201862, “PubChem BioAssay data set” (2004):
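96-well plates; 48 h exposure; 5 concentrations. Endpoints by linear interpolation between flanking doses. Not reached: highest tested concentration assigned. GI50 is the concentration that inhibits growth by half.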 The source made the active and inactive calls. No stated cut-off is given here; in the data, active = GI50 up to about 1.1 µM and inactive = higher.

Experiments:
Assay in all cases: NCI-60 cell line screen, 48 h
HOP-92 = system: HOP-92
BT-549 = system: BT-549
SF-268 = system: SF-268
786-0 = system: 786-0
NCI-H226 = system: NCI-H226
SF-539 = system: SF-539
SNB-19 = system: SNB-19
MDA-N = system: MDA-N
OVCAR-5 = system: OVCAR-5
MDA-MB-435 = system: MDA-MB-435
CAKI-1 = system: CAKI-1
NCI-H460 = system: NCI-H460
NCI-H23 = system: NCI-H23
TK-10 = system: TK-10
MCF7 = system: MCF7
HCT-15 = system: HCT-15
A549 = system: A549
A498 = system: A498
SK-MEL-5 = system: SK-MEL-5
LOX IMVI = system: LOX IMVI

| Compound | GI50 (HOP-92) | GI50 (BT-549) | GI50 (SF-268) | GI50 (786-0) | GI50 (NCI-H226) | GI50 (SF-539) | GI50 (SNB-19) | GI50 (MDA-N) | GI50 (OVCAR-5) | GI50 (MDA-MB-435) | GI50 (CAKI-1) | GI50 (NCI-H460) | GI50 (NCI-H23) | GI50 (TK-10) | GI50 (MCF7) | GI50 (HCT-15) | GI50 (A549) | GI50 (A498) | GI50 (SK-MEL-5) | GI50 (LOX IMVI) |
| --- | --- | --- | --- | --- | --- | --- | --- | --- | --- | --- | --- | --- | --- | --- | --- | --- | --- | --- | --- | --- |
| Cc1c(N=C(S)Nc2ccc(Cl)cc2)c(=O)n(-c2ccccc2)n1C | > 100 µM (inactive) | > 100 µM (inactive) | > 100 µM (inactive) | > 100 µM (inactive) | > 100 µM (inactive) | > 100 µM (inactive) | > 100 µM (inactive) | > 100 µM (inactive) | > 100 µM (inactive) | > 100 µM (inactive) | > 100 µM (inactive) | > 100 µM (inactive) | > 100 µM (inactive) | > 100 µM (inactive) | > 100 µM (inactive) | > 100 µM | > 100 µM (inactive) | > 100 µM (inactive) | > 100 µM (inactive) | > 100 µM (inactive) |
| COc1ccc(N2C(=O)C(C)SC2c2cc3cc(Br)ccc3nc2Cl)cc1 (stereo not given) | 22.9 µM (inactive) | 24.9 µM (inactive) | 38.3 µM (inactive) | 45.8 µM (inactive) | 55.3 µM (inactive) | 27.4 µM (inactive) | 25.6 µM (inactive) | 28.5 µM (inactive) | 57.9 µM (inactive) | 19.7 µM (inactive) | 35.1 µM (inactive) | 30.9 µM (inactive) | 33.6 µM (inactive) | 38.6 µM (inactive) | 33.2 µM (inactive) | 32.9 µM | 12.4 µM (inactive) | 46.8 µM (inactive) | 36.1 µM (inactive) | 33 µM (inactive) |
| COC(=O)c1c(O)ccc2c1c1c(n2Cc2cccc(C)c2)C(=O)c2ccccc2C1=O | 6.61 µM (inactive) | 15 µM (inactive) | 12 µM (inactive) | 11.9 µM (inactive) | 17.4 µM (inactive) | 14.8 µM (inactive) | 14.1 µM (inactive) | 13.1 µM (inactive) | 22.5 µM (inactive) | 9.82 µM (inactive) | 11.8 µM (inactive) | 4.29 µM (inactive) | 11.4 µM (inactive) | 12 µM (inactive) | 5.37 µM (inactive) | 8.05 µM | 6.97 µM (inactive) | 17.7 µM (inactive) | 13.1 µM (inactive) | 11.7 µM (inactive) |
| C1CSCCCSCCCSCCCSCCCSCCCSCCCSCCCSC1 | > 100 µM (inactive) | > 100 µM (inactive) | > 100 µM (inactive) | > 100 µM (inactive) | 82.2 µM (inactive) | > 100 µM (inactive) | > 100 µM (inactive) | > 100 µM (inactive) | > 100 µM (inactive) | > 100 µM (inactive) | > 100 µM (inactive) | > 100 µM (inactive) | > 100 µM (inactive) | > 100 µM (inactive) | > 100 µM (inactive) | > 100 µM | > 100 µM (inactive) | > 100 µM (inactive) | 85.9 µM (inactive) | > 100 µM (inactive) |
| O=C1N/C(=N/N=C\C(O)C(O)C(O)C(O)CO)N/C1=C\c1ccc(Cl)cc1 (stereo not given) | 1.8 µM (inactive) | 5.52 µM (inactive) | 3.61 µM (inactive) | 5.9 µM (inactive) | 3 µM (inactive) | 0.332 µM (active) | 2.73 µM (inactive) | 0.968 µM (active) | 19.5 µM (inactive) | 7.14 µM (inactive) | > 57.7 µM (inactive) | 15.7 µM (inactive) | 5.32 µM (inactive) | 4.8 µM (inactive) | 4.3 µM (inactive) | > 86.5 µM | 27.2 µM (inactive) | 11.5 µM (inactive) | 17 µM (inactive) | 5.5 µM (inactive) |
| Fc1ccc(C(OCCN2CCC3CCC(C2)N3Cc2cc3ccccc3[nH]2)c2ccc(F)cc2)cc1 (stereo not given) | 1.84 µM (inactive) | 2.32 µM (inactive) | 2.04 µM (inactive) | 1.65 µM (inactive) | 1.83 µM (inactive) | 1.59 µM (inactive) | 2.54 µM (inactive) | 1.73 µM (inactive) | 1.74 µM (inactive) | 1.88 µM (inactive) | 2.23 µM (inactive) | 1.78 µM (inactive) | 1.58 µM (inactive) | 2.43 µM (inactive) | 1.79 µM (inactive) | 1.15 µM | 2.01 µM (inactive) | 1.47 µM (inactive) | 1.72 µM (inactive) | 1.79 µM (inactive) |
| COC(=O)c1cc(-c2ccc(-c3ccc(O)cc3)cc2)cc(-c2ccc(-c3ccc(O)cc3)cc2)c1 | 6.62 µM (inactive) | 13.7 µM (inactive) | 4.04 µM (inactive) | 5.98 µM (inactive) | 12.7 µM (inactive) | 5.33 µM (inactive) | 15.5 µM (inactive) | 11 µM (inactive) | 15.7 µM (inactive) | 10.4 µM (inactive) | 16 µM (inactive) | 17.8 µM (inactive) | 8.51 µM (inactive) | 13.6 µM (inactive) | 4.48 µM (inactive) | 7.74 µM | 8.45 µM (inactive) | 16.4 µM (inactive) | 17 µM (inactive) | 6.14 µM (inactive) |
